Eight compounds from ChEMBL document CHEMBL1201862, “PubChem BioAssay data set” (2004) can be followed below.

Usually EC50 stands for the concentration giving half of the maximal effect. In general, IC50 refers to the concentration that inhibits the measured activity by half. As a reminder, the Ki is a dissociation constant, usually derived from enzyme kinetics or from competition with a known ligand.

Molecules are shown by their SMILES. Calls of active or inactive are those of the source. Bounds are passed on as bounds.

For experiment [1], the target named is T1, Mitochondrial peptide methionine sulfoxide reductase (Bos taurus, UniProt P54149).
T1 sequence (P54149 whole entry): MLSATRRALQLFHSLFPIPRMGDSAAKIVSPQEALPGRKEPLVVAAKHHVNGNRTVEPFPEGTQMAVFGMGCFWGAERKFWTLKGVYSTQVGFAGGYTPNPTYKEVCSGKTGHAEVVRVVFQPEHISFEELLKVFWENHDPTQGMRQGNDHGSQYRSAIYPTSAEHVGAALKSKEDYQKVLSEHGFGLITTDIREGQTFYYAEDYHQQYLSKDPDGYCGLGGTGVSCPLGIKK
Put plainly: Absorbance-based biochemical high throughput dose response assay for activators of Methionine sulfoxide reductase A (MsrA). Format: functional.

In experiment [2] the target is T2, Sentrin-specific protease 6 (Homo sapiens, UniProt Q9GZR1).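 Also: Luminescence-based dose-response confirmatory assay of SENP6 inhibition, following up an ultra-high-throughput screen.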
T2 sequence (Q9GZR1 whole entry): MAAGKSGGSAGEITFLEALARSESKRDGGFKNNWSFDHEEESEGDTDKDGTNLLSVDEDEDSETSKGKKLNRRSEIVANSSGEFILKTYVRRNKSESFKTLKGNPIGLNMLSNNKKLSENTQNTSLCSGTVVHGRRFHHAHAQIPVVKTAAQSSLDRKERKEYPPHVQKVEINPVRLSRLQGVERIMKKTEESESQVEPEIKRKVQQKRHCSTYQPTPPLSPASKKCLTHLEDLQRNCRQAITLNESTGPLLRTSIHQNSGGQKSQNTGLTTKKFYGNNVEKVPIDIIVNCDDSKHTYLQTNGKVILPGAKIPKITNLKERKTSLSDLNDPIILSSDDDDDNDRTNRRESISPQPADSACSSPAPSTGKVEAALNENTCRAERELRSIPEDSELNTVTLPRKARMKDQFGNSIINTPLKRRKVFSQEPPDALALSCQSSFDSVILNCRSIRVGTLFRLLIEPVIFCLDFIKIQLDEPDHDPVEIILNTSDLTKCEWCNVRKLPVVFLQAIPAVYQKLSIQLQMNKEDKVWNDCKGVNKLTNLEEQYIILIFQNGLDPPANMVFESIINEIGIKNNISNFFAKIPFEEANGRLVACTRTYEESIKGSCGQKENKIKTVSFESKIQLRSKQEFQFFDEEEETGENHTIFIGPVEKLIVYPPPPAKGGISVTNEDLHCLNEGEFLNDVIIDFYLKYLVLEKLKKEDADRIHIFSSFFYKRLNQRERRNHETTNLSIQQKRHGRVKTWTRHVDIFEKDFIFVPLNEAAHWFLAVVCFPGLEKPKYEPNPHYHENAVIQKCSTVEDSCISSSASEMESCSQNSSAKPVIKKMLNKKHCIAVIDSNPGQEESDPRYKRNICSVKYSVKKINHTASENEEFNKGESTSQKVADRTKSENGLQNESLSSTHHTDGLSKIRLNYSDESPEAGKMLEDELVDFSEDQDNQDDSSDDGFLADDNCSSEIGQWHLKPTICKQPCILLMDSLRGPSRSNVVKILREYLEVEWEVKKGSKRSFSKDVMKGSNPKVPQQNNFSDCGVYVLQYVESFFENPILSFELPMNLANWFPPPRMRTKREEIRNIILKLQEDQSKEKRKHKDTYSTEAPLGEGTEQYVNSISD
Format: functional.

The target in experiment [3] is T3, Tyrosyl-DNA phosphodiesterase 2 (Homo sapiens, UniProt O95551).
T3 sequence (O95551 whole entry): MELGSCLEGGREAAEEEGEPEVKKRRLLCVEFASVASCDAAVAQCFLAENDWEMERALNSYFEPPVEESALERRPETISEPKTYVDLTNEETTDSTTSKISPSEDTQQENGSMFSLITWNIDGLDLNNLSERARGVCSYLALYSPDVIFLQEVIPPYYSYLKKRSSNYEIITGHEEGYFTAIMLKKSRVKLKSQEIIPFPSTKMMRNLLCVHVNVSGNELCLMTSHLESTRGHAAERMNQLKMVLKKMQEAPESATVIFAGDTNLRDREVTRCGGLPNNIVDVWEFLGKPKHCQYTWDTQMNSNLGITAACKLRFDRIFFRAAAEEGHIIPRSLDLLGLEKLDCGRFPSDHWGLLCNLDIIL
The experiment is described as follows: potency against TDP2 phosphodiesterase activity – biochemical, epi absorbance, IC50, dose response (AID 743297).

Experiment [4] in a line: viability of HCT116 lacking mutant beta-catenin – cell-based, human colon tumor, dose response (AID 1045).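 Also: HCT116 colon tumor cells with beta catenin knocked out; cells exposed to compound for 60 hours.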 Format: functional.
Experiment [5] in a line: viability of PTEN-deleted HCT116 cells – cell-based, HCT116 PTEN knockout, dose response (AID 1047).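 Also: HCT116 colon tumor cells with PTEN knocked out; cells exposed to compound for 60 hours before readout; potency for loss of cell viability measured by luminescence.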 Format: functional.
For experiment [6], the target named is Dual specificity tyrosine-phosphorylation-regulated kinase 4 (Homo sapiens, UniProt Q9NR20). Format: functional.
Experiment [7] concerns the target Tyrosine-protein kinase Fyn (Homo sapiens, UniProt P06241). Format: functional.
Another experiment addresses Insulin receptor (Homo sapiens, UniProt P06213). Format: functional.
Another experiment concerns the target Aurora kinase A (Homo sapiens, UniProt O14965). Format: functional.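 Also: value from the Navigating the Kinome kinase panel profiling, panel entry STK6.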
Another experiment has as its target Focal adhesion kinase 1 (Homo sapiens, UniProt Q05397). Format: functional.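 Also: measured as one member of a kinome panel.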
The target in experiment [8] is Mast/stem cell growth factor receptor Kit (Homo sapiens, UniProt P10721). Format: functional.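 Also: KIT entry within a kinase panel assay.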
Experiment [9] addresses Interleukin-1 receptor-associated kinase 1 (Homo sapiens, UniProt P51617). Format: functional.
Experiment [10] addresses Alkaline phosphatase, placental type (Homo sapiens, UniProt P05187). The experiment is described as follows: human placental alkaline phosphatase inhibition – biochemical, luminescence, confirmation (AID 1512). Format: functional.
Experiment [11] can be described thus: Luminescence-based dose response cell-based high throughput screening assay for cytotoxic compounds using the IEC-6 intestinal epithelial cell line. [Related pubchem assays: 1858 (Summary AID.), 1825 (Counterscreen.), 1907 (Confirmation screen.)]. Format: functional.
Experiment [12] addresses Kappa-type opioid receptor (Homo sapiens, UniProt P41145). Format: functional.
The target of the next experiment is Mu-type opioid receptor (Homo sapiens, UniProt P35372). Put plainly: HTS Image-Based Screen for Agonists of the MOR Receptor. [Related pubchem assays (depositor defined):AID1777, AID1785, AID1786, AID2133]. Format: functional.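 Also: imaging of beta-arrestin GFP recruitment into spots after receptor activation.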
Mu-type opioid receptor, sequence (P35372 whole entry): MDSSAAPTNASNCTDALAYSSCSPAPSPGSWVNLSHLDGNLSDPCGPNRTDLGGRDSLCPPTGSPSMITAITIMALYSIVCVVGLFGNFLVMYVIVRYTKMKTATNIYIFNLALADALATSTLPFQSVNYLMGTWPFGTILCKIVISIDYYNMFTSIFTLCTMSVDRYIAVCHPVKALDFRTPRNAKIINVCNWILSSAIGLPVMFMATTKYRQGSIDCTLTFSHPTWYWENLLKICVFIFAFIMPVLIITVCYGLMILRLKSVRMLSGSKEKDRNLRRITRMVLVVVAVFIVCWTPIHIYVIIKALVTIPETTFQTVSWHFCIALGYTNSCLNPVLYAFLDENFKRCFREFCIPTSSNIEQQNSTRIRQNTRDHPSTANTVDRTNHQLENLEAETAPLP

Mast/stem cell growth factor receptor Kit, sequence (P10721 whole entry): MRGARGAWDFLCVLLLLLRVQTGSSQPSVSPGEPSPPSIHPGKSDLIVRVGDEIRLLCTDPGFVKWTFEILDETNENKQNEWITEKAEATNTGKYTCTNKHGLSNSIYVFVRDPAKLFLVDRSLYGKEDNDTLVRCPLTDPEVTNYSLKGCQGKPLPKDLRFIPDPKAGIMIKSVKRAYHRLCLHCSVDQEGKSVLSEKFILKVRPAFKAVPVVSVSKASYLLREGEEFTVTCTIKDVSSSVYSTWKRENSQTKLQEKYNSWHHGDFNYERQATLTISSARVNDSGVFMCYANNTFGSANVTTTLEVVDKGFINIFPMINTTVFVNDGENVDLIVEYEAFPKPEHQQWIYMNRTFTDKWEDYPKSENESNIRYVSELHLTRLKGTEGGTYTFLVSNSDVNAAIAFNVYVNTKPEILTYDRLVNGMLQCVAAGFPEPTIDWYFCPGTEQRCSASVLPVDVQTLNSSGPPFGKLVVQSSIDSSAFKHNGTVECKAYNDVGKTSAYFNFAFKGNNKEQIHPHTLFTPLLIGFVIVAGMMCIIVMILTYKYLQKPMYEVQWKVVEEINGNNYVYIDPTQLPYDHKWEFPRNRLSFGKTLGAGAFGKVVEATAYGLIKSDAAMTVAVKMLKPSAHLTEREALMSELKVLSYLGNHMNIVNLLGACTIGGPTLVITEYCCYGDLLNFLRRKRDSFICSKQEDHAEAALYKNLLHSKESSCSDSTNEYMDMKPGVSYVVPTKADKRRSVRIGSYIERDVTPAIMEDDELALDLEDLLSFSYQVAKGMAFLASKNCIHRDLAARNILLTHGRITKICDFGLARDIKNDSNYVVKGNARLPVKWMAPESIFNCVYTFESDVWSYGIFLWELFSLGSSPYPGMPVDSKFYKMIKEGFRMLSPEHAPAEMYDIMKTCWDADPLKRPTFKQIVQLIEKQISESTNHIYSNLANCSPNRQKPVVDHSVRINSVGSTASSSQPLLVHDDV
Focal adhesion kinase 1, sequence (Q05397 whole entry): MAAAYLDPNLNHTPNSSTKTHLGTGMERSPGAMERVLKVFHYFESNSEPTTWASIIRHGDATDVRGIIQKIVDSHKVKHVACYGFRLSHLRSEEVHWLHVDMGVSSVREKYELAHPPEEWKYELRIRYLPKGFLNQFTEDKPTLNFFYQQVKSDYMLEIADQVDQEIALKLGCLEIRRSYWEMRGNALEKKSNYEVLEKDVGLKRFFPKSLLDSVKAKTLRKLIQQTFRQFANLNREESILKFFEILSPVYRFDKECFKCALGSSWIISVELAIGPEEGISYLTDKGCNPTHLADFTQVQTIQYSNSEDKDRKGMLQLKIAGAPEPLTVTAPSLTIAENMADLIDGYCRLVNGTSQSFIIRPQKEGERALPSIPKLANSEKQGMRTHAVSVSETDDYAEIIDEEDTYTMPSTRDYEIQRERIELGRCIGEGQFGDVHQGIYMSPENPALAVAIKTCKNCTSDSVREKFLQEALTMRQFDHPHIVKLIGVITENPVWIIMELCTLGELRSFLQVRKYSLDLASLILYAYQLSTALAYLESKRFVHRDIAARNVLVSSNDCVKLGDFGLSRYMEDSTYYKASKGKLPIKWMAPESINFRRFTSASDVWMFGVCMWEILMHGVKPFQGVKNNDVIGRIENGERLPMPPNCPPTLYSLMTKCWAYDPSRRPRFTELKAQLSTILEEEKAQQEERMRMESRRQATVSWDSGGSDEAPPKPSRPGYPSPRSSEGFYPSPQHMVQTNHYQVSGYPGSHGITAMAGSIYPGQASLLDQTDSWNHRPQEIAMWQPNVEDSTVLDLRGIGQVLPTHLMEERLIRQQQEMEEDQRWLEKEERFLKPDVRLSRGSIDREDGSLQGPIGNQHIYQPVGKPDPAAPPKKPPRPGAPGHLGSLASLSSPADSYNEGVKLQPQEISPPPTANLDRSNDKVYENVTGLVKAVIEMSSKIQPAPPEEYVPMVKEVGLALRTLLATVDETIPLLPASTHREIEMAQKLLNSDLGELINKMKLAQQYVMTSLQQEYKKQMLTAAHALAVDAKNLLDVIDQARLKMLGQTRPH
Kappa-type opioid receptor, sequence (P41145 whole entry): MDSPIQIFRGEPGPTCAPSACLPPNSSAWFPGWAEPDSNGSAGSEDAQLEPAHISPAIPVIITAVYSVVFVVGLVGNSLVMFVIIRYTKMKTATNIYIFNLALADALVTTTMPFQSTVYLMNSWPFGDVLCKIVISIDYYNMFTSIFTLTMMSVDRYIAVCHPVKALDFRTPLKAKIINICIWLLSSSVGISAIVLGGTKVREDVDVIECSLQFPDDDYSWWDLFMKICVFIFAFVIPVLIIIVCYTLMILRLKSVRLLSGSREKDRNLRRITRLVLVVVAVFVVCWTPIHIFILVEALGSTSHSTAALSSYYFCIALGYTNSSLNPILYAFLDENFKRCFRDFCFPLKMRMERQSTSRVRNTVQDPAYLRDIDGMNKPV
Tyrosine-protein kinase Fyn, sequence (P06241 whole entry): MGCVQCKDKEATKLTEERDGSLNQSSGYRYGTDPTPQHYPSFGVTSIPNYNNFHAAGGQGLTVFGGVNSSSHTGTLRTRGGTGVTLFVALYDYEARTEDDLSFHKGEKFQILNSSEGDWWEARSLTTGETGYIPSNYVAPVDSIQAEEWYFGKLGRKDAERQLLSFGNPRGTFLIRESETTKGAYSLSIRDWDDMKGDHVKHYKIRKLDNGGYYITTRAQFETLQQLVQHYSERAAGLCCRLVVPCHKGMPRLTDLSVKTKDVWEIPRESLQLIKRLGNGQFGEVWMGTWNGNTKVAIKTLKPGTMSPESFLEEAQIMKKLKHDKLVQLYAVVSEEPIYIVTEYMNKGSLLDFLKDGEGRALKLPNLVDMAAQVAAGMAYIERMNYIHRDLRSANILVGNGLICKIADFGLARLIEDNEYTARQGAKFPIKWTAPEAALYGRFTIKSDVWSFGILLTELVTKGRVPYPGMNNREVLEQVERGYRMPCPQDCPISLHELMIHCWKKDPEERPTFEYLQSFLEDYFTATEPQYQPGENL
Dual specificity tyrosine-phosphorylation-regulated kinase 4, sequence (Q9NR20 whole entry): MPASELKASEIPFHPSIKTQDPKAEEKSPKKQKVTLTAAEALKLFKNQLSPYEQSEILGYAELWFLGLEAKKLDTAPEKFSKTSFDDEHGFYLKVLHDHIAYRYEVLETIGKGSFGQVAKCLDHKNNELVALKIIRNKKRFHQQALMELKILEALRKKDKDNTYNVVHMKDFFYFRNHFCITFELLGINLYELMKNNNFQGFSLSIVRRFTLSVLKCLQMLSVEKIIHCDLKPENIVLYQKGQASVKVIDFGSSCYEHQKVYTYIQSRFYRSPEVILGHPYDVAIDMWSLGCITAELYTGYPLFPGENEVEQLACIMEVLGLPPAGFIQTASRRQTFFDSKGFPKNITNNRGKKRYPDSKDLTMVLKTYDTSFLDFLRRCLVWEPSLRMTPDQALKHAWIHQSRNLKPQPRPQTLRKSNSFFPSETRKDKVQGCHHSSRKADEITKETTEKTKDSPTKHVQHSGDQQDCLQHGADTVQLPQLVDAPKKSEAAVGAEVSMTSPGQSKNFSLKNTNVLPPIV
Alkaline phosphatase, placental type, sequence (P05187 whole entry): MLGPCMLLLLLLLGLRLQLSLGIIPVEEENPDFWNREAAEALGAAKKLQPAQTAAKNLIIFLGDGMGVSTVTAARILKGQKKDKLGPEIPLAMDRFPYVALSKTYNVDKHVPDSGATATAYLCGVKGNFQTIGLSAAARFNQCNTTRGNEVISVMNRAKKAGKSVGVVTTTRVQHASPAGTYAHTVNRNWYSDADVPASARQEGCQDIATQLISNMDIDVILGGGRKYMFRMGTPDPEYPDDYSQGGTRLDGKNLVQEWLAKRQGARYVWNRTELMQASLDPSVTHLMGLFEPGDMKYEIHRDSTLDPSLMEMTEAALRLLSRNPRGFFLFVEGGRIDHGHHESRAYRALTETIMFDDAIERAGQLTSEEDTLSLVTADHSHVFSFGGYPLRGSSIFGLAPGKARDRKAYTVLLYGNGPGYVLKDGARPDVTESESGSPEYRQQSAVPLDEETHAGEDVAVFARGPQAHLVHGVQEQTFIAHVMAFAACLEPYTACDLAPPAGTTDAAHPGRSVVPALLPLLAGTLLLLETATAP
Aurora kinase A, sequence (O14965 whole entry): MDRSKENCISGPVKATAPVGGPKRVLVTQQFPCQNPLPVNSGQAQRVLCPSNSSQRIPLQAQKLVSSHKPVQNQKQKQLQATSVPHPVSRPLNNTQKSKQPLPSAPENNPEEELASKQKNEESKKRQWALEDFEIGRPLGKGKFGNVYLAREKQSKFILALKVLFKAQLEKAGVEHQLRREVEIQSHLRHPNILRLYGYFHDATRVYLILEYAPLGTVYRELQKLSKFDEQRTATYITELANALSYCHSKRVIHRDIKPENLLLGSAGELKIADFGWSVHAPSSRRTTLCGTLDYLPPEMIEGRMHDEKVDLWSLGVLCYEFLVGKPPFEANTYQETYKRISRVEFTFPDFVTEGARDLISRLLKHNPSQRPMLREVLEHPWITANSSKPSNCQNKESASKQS

For `O=C1C(Cl)=C(NCc2cccnc2)C(=O)c2ccccc21`, in experiment [1], the EC50 is > 104 µM (inactive).
On to `Nc1ccc(Br)c2cccnc12`, for which the IC50 was 7.46 µM (active) in [2] and 75.5 µM (inactive) in experiment [3].
For `CN(C)c1ncc(C2=C(Cl)C(=O)C(N3CCCC3)=C(Cl)C2=O)s1`, the EC50 in experiment [4] is 6.06 µM (active); in [5], 5.41 µM (active).
On to `Cc1ccc(C(=O)c2c(C)oc3c2C(=O)C(=O)c2ccccc2-3)cc1`, for which, in experiment [2], the IC50 is 4.76 µM (active). Further, the results for the EC50 in experiment [4] and in experiment [5] were 2.66 µM (active) and 3.11 µM (active), respectively.
With `Cc1cnc(NC(=O)c2sc3ccccc3c2Cl)s1`, in [2], the IC50 was > 100 µM (inactive).
On to `O=C1C(O)=C/C(=N\c2ccccc2O)c2ccccc21`, for which the IC50 in experiment [2] is 2.95 µM (active); in [3] it was 37.7 µM (inactive). Moreover, the EC50 in experiment [1] is > 104 µM (inactive).
Take `O=C1NC(=S)SC1=C1C(=O)Nc2ccc(Br)cc21`: the Ki in experiment [6] was > 7.94 µM (inactive); in [7], > 0.794 µM (inactive); on Insulin receptor it was > 5.01 µM (inactive); on Aurora kinase A, 0.501 µM (active); at Focal adhesion kinase 1, > 1.58 µM (inactive); in experiment [8] it was > 1.26 µM (inactive). For the same compound, the Ki in experiment [9] is > 7.94 µM (inactive).
In the case of `Cc1ccc(Nc2cc(C)nn2-c2nc(C)cc(O)n2)cc1`, the IC50 is > 100 µM (inactive) in experiment [10], 0.546 µM (active) in [11] and 0.747 µM (active) in experiment [12]. Besides, the EC50 at Mu-type opioid receptor was > 32 µM (inactive).
